Assay results taken from the supplement of paper PMC10307832.

Columns and labels:
Assay in all cases: relative viability (nuclei count vs DMSO), 5 days (fraction); higher = more cells survive
[1] = compound: Cc1nc(C(=O)NCC(=O)O)c(O)c2ccc(Oc3ccccc3)cc12 [FG-4592] + CC(=O)c1c(C)c2cnc(Nc3ccc(N4CCNCC4)cn3)nc2n(C2CCCC2)c1=O [Palbociclib] (partner 0.5 µM)
Summary of the method: (§1)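 Cells from lung cancer lines were seeded into 1536-well plates and, one day later, dosed by pin tool. Treatments were either a single drug or a fixed dose of an anchor drug with five library-drug doses (not always all listed) in √10 steps. After 5 days, nuclei were stained in a one-step fixation (final 0.05% Triton X-100, 1% formaldehyde, 1 ug/ml Hoechst) and counted on 4× images, and relative viability is the treated-to-vehicle nuclei ratio, as the median of duplicate plates.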

[2] = compound: CC1=CC(=C(N1C2=CC=C(C=C2)Cl)C)C(=O)CN3CCCCC3 [IU1-47] + CS(=O)(=O)CCNCc1ccc(-c2ccc3ncnc(Nc4ccc(OCc5cccc(F)c5)c(Cl)c4)c3c2)o1 [Lapatinib] (partner 2 µM)
Summary of the method: as §1

[3] = compound: Cc1nc(C(=O)NCC(=O)O)c(O)c2ccc(Oc3ccccc3)cc12 [FG-4592] + N=C(N)NC(=N)NCCc1ccccc1 [Phenformin] (partner 250 µM)
Summary of the method: as §1

[4] = compound: Cc1nc(C(=O)NCC(=O)O)c(O)c2ccc(Oc3ccccc3)cc12 [FG-4592] + CCNC(=O)c1noc(-c2cc(C(C)C)c(O)cc2O)c1-c1ccc(CN2CCOCC2)cc1 [Luminespib] (partner 0.01 µM)
Summary of the method: as §1

Cell Line | relative viability ([1]; first compound 0.08 µM) | relative viability ([1]; first compound 0.253 µM) | relative viability ([1]; first compound 0.8 µM) | relative viability ([1]; first compound 2.53 µM) | relative viability ([1]; first compound 8 µM) | relative viability ([2]; first compound 0.08 µM) | relative viability ([2]; first compound 0.253 µM) | relative viability ([2]; first compound 0.8 µM) | relative viability ([2]; first compound 2.53 µM) | relative viability ([2]; first compound 8 µM) | relative viability ([3]; first compound 0.08 µM) | relative viability ([3]; first compound 0.253 µM) | relative viability ([3]; first compound 0.8 µM) | relative viability ([3]; first compound 2.53 µM) | relative viability ([3]; first compound 8 µM) | relative viability ([4]; first compound 0.08 µM) | relative viability ([4]; first compound 0.253 µM) | relative viability ([4]; first compound 0.8 µM) | relative viability ([4]; first compound 2.53 µM) | relative viability ([4]; first compound 8 µM)
NCI-H1650 | 0.259 | 0.292 | 0.304 | 0.346 | 0.332 | 0.755 | 0.717 | 0.935 | 0.57 | 0.351 | 0.464 | 0.448 | 0.338 | 0.586 | 0.51 | 0.206 | 0.208 | 0.219 | 0.197 | 0.209
NCI-H2085 | 0.507 | 0.432 | 0.5 | 0.46 | 0.469 | 0.7 | 0.77 | 0.941 | 0.681 | 0.685 | 0.646 | 0.618 | 0.536 | 0.592 | 0.647 | 0.439 | 0.47 | 0.389 | 0.426 | 0.462
NCI-H1793 | – | 0.256 | – | 0.39 | 0.293 | 0.525 | 0.594 | 0.648 | – | 0.566 | 0.357 | 0.273 | – | 0.307 | 0.36 | 0.155 | 0.227 | – | 0.157 | 0.185
LC-2-ad | 0.473 | 0.456 | 0.515 | 0.549 | 0.476 | 1.09 | 0.928 | 0.836 | 1.25 | 1.04 | 0.571 | 0.541 | – | 0.527 | 0.658 | 0.961 | 0.885 | – | 0.932 | 0.926
COR-L 105 | 0.419 | 0.433 | 0.324 | 0.34 | 0.418 | 0.312 | 0.405 | 0.382 | 0.328 | 0.333 | 0.46 | 0.432 | 0.456 | 0.437 | 0.45 | 0.779 | 0.696 | 0.752 | 0.847 | 0.776
NCI-H1355 | 0.394 | 0.38 | – | 0.382 | 0.356 | 1.11 | 1.11 | 1.08 | 0.627 | 0.983 | 0.378 | 0.422 | 0.358 | 0.431 | 0.449 | 0.808 | 0.67 | 0.465 | 0.681 | 0.676
H3255 | 0.326 | 0.293 | 0.299 | 0.317 | 0.304 | 0.242 | 0.242 | 0.256 | 0.238 | 0.246 | 0.359 | 0.345 | 0.361 | 0.33 | 0.323 | 0.891 | 0.804 | 0.848 | 0.945 | 0.875
NCI-H1993 | 0.689 | 0.515 | – | 0.691 | 0.563 | 0.82 | 0.754 | 0.741 | 0.815 | 0.748 | 0.513 | 0.427 | 0.5 | 0.421 | 0.507 | 0.806 | 0.868 | 0.771 | 0.984 | 0.869
NCI-H1734 | 0.348 | 0.362 | 0.35 | 0.345 | 0.286 | 1.05 | 1.15 | 1.12 | – | 1.02 | 0.398 | 0.387 | 0.343 | 0.377 | 0.354 | 0.183 | 0.185 | 0.177 | 0.192 | 0.178
